The results in this text go back to patent EP3436445B1, “HISTONE DEMETHYLASE INHIBITORS” (Celgene Quanticel Research, Inc., priority 2016, dated 2017).

In one test the target is T1, JMJD3 (Homo sapiens, UniProt O15054).
T1 construct: purchased BPS Bioscience 50115
Briefly: JMJD3 in vitro enzyme inhibition assay (AlphaScreen). The settings on record: Table 5; 1 nM JMJD3, H3K27me3-biotin labeled peptide. The class given is biochemical. In short, it runs like this: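 Baculovirus-expressed JMJD3 (AA1043-end), 1 nM, with 250 nM biotinylated H3K27me3 peptide and 1 µM alpha-ketoglutarate in HEPES pH 7.3 containing ascorbate and Fe(II), 20 min at room temperature. EDTA stop with anti-H3K27me1 antibody, then AlphaScreen donor/acceptor beads for at least 2 h; IC50 from 11-point dilution curves.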

Another test deals with T2, Jarid1B (Homo sapiens, UniProt Q9UGL1).
T2 construct: purchased BPS Bioscience (or custom made by MolecularThroughput) 50121
T2 sequence (Q9UGL1 2-751): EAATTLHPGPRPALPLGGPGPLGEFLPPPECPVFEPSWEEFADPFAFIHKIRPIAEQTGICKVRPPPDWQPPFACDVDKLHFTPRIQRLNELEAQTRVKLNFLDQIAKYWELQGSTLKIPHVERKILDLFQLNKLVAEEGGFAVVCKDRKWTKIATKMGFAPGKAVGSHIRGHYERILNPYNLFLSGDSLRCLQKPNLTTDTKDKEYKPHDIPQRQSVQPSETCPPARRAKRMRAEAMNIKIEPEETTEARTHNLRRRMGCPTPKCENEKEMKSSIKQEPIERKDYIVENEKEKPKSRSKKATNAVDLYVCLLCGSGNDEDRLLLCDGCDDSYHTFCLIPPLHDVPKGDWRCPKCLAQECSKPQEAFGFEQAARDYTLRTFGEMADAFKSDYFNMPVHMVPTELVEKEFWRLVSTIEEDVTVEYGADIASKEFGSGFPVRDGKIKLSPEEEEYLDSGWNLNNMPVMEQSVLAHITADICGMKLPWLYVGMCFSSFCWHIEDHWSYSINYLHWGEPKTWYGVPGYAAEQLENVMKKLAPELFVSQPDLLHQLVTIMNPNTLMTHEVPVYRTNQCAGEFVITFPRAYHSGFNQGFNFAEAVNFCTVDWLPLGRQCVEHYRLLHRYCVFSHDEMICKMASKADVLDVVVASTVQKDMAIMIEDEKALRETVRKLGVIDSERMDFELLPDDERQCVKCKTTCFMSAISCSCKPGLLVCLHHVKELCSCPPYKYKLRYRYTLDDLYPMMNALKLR
Briefly: Jarid1B in vitro enzyme inhibition assay (TR-FRET). It is filed as biochemical. To be noted: Table 5; 0.8 nM Jarid1B, H3K4me3-biotin labeled peptide; read-out: JARID1B IC5. In short, it runs like this:
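Baculovirus-expressed Jarid1B (AA 2-751) at 0.8 nM with 300 nM biotin-H3K4me3 peptide and 2 µM alpha-ketoglutarate in HEPES pH 7.3 with Fe(II), ascorbate and TCEP, 30 minutes at room temperature. EDTA-stopped; H3K4me1-2 product detected by TR-FRET (665/615 ratio); IC50 from 11-point dilutions.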
(In general: Time-resolved FRET reads energy transfer from a long-lived donor to a nearby acceptor.)

T1 sequence (O15054 1043-1682 isoform O15054-1): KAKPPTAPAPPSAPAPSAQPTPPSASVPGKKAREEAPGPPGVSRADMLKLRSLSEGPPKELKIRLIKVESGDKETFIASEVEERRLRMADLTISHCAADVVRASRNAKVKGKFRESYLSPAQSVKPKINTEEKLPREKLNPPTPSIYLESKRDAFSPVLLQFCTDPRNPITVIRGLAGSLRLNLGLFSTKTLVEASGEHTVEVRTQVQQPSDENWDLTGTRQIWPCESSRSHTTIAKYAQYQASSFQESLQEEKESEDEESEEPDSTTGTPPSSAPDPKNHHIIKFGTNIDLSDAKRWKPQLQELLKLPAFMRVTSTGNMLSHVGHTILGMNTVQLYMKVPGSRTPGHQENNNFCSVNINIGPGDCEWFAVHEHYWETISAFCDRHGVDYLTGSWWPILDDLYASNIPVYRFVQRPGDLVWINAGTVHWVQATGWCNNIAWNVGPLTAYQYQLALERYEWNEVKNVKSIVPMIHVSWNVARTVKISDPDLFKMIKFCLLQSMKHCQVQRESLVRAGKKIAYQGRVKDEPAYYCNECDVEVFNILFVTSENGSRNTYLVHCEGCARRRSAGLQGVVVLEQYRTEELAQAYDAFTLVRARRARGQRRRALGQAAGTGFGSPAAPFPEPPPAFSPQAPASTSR

In the case of `COc1cccc2c1CCCC2Cn1cnc(-c2cc(-c3nn[nH]c3C(F)(F)F)ccn2)c1` (centres unmarked) [Example 104, 2-{1-[(5-methoxy-1,2,3,4-tetrahydronaphthalen-1-yl)methyl]-1H-imidazol-4-yl}-4-[5-(trifluoromethyl)-1H-1,2,3-triazol-4-yl]pyridine], the IC50 against JMJD3 was more than 10000 nM; on Jarid1B, 100 to 1000 nM.

In the case of `COc1ccc2c(c1)CCCC2Cn1cnc(-c2cc(-c3nn[nH]c3C(F)(F)F)ccn2)c1` (centres unmarked) [Example 105, 2-{1-[(6-methoxy-1,2,3,4-tetrahydronaphthalen-1-yl)methyl]-1H-imidazol-4-yl}-4-[5-(trifluoromethyl)-1H-1,2,3-triazol-4-yl]pyridine], the figures for the IC50 against JMJD3 and at Jarid1B were more than 10000 nM and 100 to 1000 nM, respectively.

With `COc1ccc2c(c1)C(Cn1cnc(-c3cc(-c4nn[nH]c4C(F)(F)F)ccn3)c1)CCC2` (centres unmarked) [Example 106, 2-{1-[(7-methoxy-1,2,3,4-tetrahydronaphthalen-1-yl)methyl]-1H-imidazol-4-yl}-4-[5-(trifluoromethyl)-1H-1,2,3-triazol-4-yl]pyridine], the IC50 against JMJD3 is more than 10000 nM; at Jarid1B, not above 100 nM.

Turning to `COc1cccc2c1C(Cn1cnc(-c3cc(-c4nn[nH]c4C(F)(F)F)ccn3)c1)CCC2` (centres unmarked) [Example 107, 2-{1-[(8-methoxy-1,2,3,4-tetrahydronaphthalen-1-yl)methyl]-1H-imidazol-4-yl}-4-[5-(trifluoromethyl)-1H-1,2,3-triazol-4-yl]pyridine], the figures for the IC50 at JMJD3 and on Jarid1B were more than 10000 nM and 100 to 1000 nM, respectively.
